# Test results as given in US4931553A, “Platinum-polymer complexes and their use as antitumor agents” (priority 1988, dated 1990).
# Legend:
# [1] = Aqueous solubility of polymeric platinum prodrugs; format: physicochemical; conditions: for Solubility at RT: room temperature; for Aqueous solubility / Appearance: Table I; for Appearance: appearance of the aqueous solution; for Solubility of the complex: temperature not stated
# Excerpt: Three polyacrylic acid polymers of weight average molecular weight 2000, 5000, 15,000 were used as ligands for complexation with Pt(DACH)(NO3)2 to determine the effect of molecular weight on the physical properties and antitumor properties of the complexes. […] In addition to polyacrylic acids, polymethacrylic acid of 15,000 weight average molecular weight and isotactic and syndiotactic polymethacrylic acid polymers of about 5000 Mw were used as ligands. The polyacrylates were complexed with Pt(DACH)(NO3)2 in aqueous solution at pH 4-6.
# [2] = test system: tumors responsive to cisplatin and/or DACH-Pt and bisplatinum complex therapy; assay: Anti-tumor activity (statement for the pyran copolymer complex); conditions: in vivo
# [3] = Aqueous solubility of polymeric platinum prodrugs; format: physicochemical; conditions: Table I; for Appearance: appearance of the aqueous solution
# [4] = cited from earlier work
# L1210 murine tumor = L1210 murine tumor model in BDF1 mice (T/C% and cures); format: in vivo
# Experimental: Some of the specific compounds of the examples above were tested by NCI against L1210 murine tumor model in BDF1 mice. The tumored mice were injected ip with solutions of compounds on days 1, 5, and 9 after the cell innoculum. The results of the experiments were evaluated on day 30 and are expressed as the quotient of the median survival time in days of test animals divided by median day of death of the untreated control mice, multiplied by 100 (T/C%). Mice with no sign of tumor on day 30 are considered as cured.
# T/C = Ratio of test evaluation to control evaluation expressed as
# percentage. More precisely, T/C = Median survival time of test animals
# × 100 (Median survival time of control).
# malignancies in humans = conditions: in vivo; cited from earlier work
# animal tumors = conditions: in vivo; cited from earlier work
# CA - 755 Adenocarcinoma = assay: Inhibition of tumor weight, CA-755 Adenocarcinoma implanted subcutaneously; format: in vivo, mice; conditions: day 30
# Experimental: (§1) In addition to the L1210 tumor line, Pt(trans-DACH)carboxyamylose (Pt:Polymer=1:6) was screened against additional murine tumor models. In these experiments, tumor of a known weight was implanted subcutaneously to the mice. The mice were then treated with the compound on day 1, 5, 9 schedule. On day 30, the tumors were reweighed and the results are expressed as percent inhibition of tumor weight.
# Lewis Lung = assay: Inhibition of tumor weight, Lewis Lung implanted subcutaneously; format: in vivo, mice; conditions: day 30
# Experimental: as §1
# [5] = test system: x5563 Plasma Cell Myeloma; assay: Inhibition of tumor weight, x5563 Plasma Cell Myeloma implanted subcutaneously; format: in vivo, mice; conditions: day 30
# Experimental: as §1
# M5 ovarian Carcinoma = assay: Inhibition of tumor weight, M5 ovarian Carcinoma implanted subcutaneously; format: in vivo, mice; conditions: day 30
# Experimental: as §1
# [6] = Table 2, 10 mg/kg, ip days 1, 5, 9, day 30
# [7] = Table 2, 10 mg/kg, ip days 1, 5, 9, no sign of tumor on day 30
# [8] = Table 2, 20 mg/kg, ip days 1, 5, 9, day 30
# [9] = Table 2, 20 mg/kg, ip days 1, 5, 9, no sign of tumor on day 30
substance,measurement,setting,value
"Pt(trans-DACH)Carboxy Dextran Sulfate (6,000 Mw) [Example 11]",Solubility at RT,[1],50 mg/mL
(trans-DACH) Pyran Copolymer Complex [Example 19],Anti-tumor activity (in words),[2],exhibits anti-tumor activity
Pt(trans-DACH)CO oxyalginic Acid (75.000 Mw) [Example 15],Solubility in 10% sodium bicarbonate solution,"[1]; 10% sodium bicarbonate, 40° C.",25 mg/mL
Pt(trans-DACH)Carboxy Dextran (11.700 Mw) [Example 8],Solubility at 50° C.,[1],25 mg/mL
same,Aqueous solubility,[3]; 2,25 mg/mL
same,Appearance,[3]; 2,cloudy
cis-[Pt(NH3)2 Cl2 ] [cisplatin],Water solubility,[4]; in water,about 1 mg/ml
same,T/C,"L1210 murine tumor; Table 3, 5 mg/kg",175 ± 5
same,Use in human malignancies (in words),malignancies in humans,used successfully in treating certain types of malignancies in humans
same,Effectiveness against animal tumors (in words),animal tumors,effective against several types of animal tumors
"Pt(trans-DACH)Carboxyamylose (176,000 Mw) [Example 16]",Aqueous solubility,[1],725 mg/mL
same,Appearance,[1],clear
same,Solubility of the complex on slight warming,[1]; on slight warming,greater than 25 mg per ml
Pt(trans-DACH)Polyacrylate (5000 Mw) [Example 2],Solubility in water (in words),[1]; water,very soluble in water
"Pt(trans-DACH)Carboxy Dextran, 11,700 Mw (58% Degree of Oxidation) [Example 12]",Solubility at RT,[1],100 mg/mL
"Pt(trans-DACH)Carboxy Dextran (47,000 Mw) [Example 10]",Solubility in water at room temperature and up to 50° C. (in words),"[1]; water, room temperature and up to 50° C.",insoluble in water at room temperature and up to 50 °C
Pt(trans-DACH)Carboxy Amylopectin (176.000 Mw) [Example 7],Aqueous solubility,[1],25 mg/mL
same,Appearance,[1],clear
same,T/C,L1210 murine tumor; [6],337%
same,Cures,L1210 murine tumor; [7],4/6
same,T/C,L1210 murine tumor; [8],314%
same,Cures,L1210 murine tumor; [9],2/6
same,Cures,"L1210 murine tumor; Table 3, 10 mg/kg",4/6
same,T/C,"L1210 murine tumor; Table 3, 10 mg/kg",337
same,Cures,"L1210 murine tumor; Table 3, 20 mg/kg",2/6
same,T/C,"L1210 murine tumor; Table 3, 20 mg/kg",314
Pt(trans-DACH)Carboxy Amylopectin (176.000 Mw) [Example 7 (freeze-dried)],Solubility at 50° C.,[1],25 mg/mL
Pt(trans-DACH)Carboxy Polygalacturonic Acid [Example 14],Solubility in aqueous solution (in words),[1]; aqueous solution,Insoluble in aqueous solution
"Pt(trans-DACH)Carboxy Dextran (40,000 Mw) [Example 18]",Aqueous solubility,[1],730 mg/mL
same,Appearance,[1],clear
same,Solubility of the complex,[1],greater than 30 mg per ml
Pt(trans-DACH)polyacrylate (2000 Mw) [Example 1],Solubility in water (in words),[1]; water,very soluble in water
"Pt(trans-DACH)Carboxy Dextran (21,200 Mw) [Example 9]",Solubility at RT,[1],100 mg/mL
Pt(trans-DACH)Carboxy Amylose (176.000 Mw) [Example 5],% Inh. of tumor weight,"CA - 755 Adenocarcinoma; dose 5, days 1, 5, 9",69%
same,% Inh. of tumor weight,"CA - 755 Adenocarcinoma; dose 10, days 1, 5, 9",81%
same,% Inh. of tumor weight,"CA - 755 Adenocarcinoma; dose 20, days 1, 5, 9",94%
same,% Inh. of tumor weight,"Lewis Lung; dose 1.25, days 1, 5, 9",20%
same,% Inh. of tumor weight,"Lewis Lung; dose 2.5, days 1, 5, 9",37%
same,% Inh. of tumor weight,"Lewis Lung; dose 5, days 1, 5, 9",34%
same,% Inh. of tumor weight,"[5]; dose 5, days 1, 5, 9",100%
same,% Inh. of tumor weight,"[5]; dose 10, days 1, 5, 9",100%
same,% Inh. of tumor weight,"[5]; dose 20, days 1, 5, 9",100%
same,% Inh. of tumor weight,"M5 ovarian Carcinoma; dose 5, days 1, 5, 9",64%
same,% Inh. of tumor weight,"M5 ovarian Carcinoma; dose 10, days 1, 5, 9",86%
same,% Inh. of tumor weight,"M5 ovarian Carcinoma; dose 20, days 1, 5, 9",99%
same,Aqueous solubility,[1],10 mg/mL
same,Appearance,[1],clear
same,T/C,L1210 murine tumor; [6],269%
same,Cures,L1210 murine tumor; [7],1/6
same,T/C,L1210 murine tumor; [8],269%
same,Cures,L1210 murine tumor; [9],2/6
same,T/C,"L1210 murine tumor; Table 2, 40 mg/kg, ip days 1, 5, 9, day 30",292%
same,Cures,"L1210 murine tumor; Table 2, 40 mg/kg, ip days 1, 5, 9, no sign of tumor on day 30",2/6
"Pt(trans DACH)Carboxy amylopectin (176,000 Mw) [Example 17]",Aqueous solubility,[1],725 mg/mL
same,Appearance,[1],clear
same,Solubility of the complex,[1],greater than 25 mg per ml
same,T/C,L1210 murine tumor; [6],357%
same,Cures,L1210 murine tumor; [7],3/6
same,T/C,L1210 murine tumor; [8],261%
same,Cures,L1210 murine tumor; [9],1/6
Pt(trans-DACH)Carboxy Dextran (11.700 Mw),Aqueous solubility,[3]; 6,100 mg/mL
same,Appearance,[3]; 6,clear
DACH-Pt(OH2)Cl2 (IV),Solubility of platinum-amine complexes (at most sparingly soluble),[4]; at most sparingly soluble,< 1 mg/mL
Pt(trans-DACH)Carboxy Amylose (50% degree of Oxidation) [Example 13],Solubility at 50° C.,[1],25 mg/mL
"Pt(trans-DACH)Carboxy Amylose (4,800 Mw) [Example 6]",Solubility at 50° C.,[1],20 mg/mL
